These results are taken from patent US11883526B2 (priority 2019, dated 2024).

Data set [1] has as its system subjects with MDD at imminent risk for suicide. Nature of the data set: Beck Hopelessness Scale, BHS ([…]2001). The following applies: 84 mg, ANCOVA LOCF, ITT. The format is in vivo, human. An excerpt:
The BHS is a self-reported measure to assess one's level of negative expectations or pessimism regarding the future. It consists of 20 true-false items that examine the respondent's attitude over the past week by either endorsing a pessimistic statement or denying an optimistic statement. For every statement, each response is assigned a score of 0 or 1. The total BHS score is a sum of item responses and ranges from 0 to 20, with a higher score representing a higher level of hopelessness.

For data set [2] the following is noted: 14-day study, 54 mg/day intranasal. How it is done:
This study includes a single dose and 14-day repeated dose neurotoxicity studies with intranasally administered esketamine in female rats 12 to 14 weeks of age. These studies were conducted to investigate whether single or repeated intranasal administrations of esketamine induced neurodegenerative changes in the rat brain. The study results were used to estimate an esketamine exposure-based safety margin compared with the maximum dose of esketamine administered intranasally to depressed adult patients in clinical trials.
Each group of main study animals consisted of 12 female rats. Four satellite animals were added to the esketamine HCl-dosed groups of main study animals for TK purposes. The plasma exposure to esketamine was measured in these animals on the first and the last day of dosing at various time points up to and including 24 hours after the first instillation.

Data set [3] deals with patients with treatment-resistant depression (TRD). Nature of the data set: Vital signs: blood pressure and heart rate (Example 7). The format is in vivo, human. Here is the method:
(§1) Adverse events were monitored throughout the study. Other safety assessments (i.e., laboratory tests, vital signs, physical examination) were performed at pre-specified time points. Vital signs, the Clinician Administered Dissociative States Scale (CADSS; Bremner, “Measurement of dissociative states with the clinician-administered dissociative states scale (CADSS)”, J. Traumatic Stress, 1998, 11(1):125-136), and the 4-item positive symptom subscale from the Brief Psychiatric Rating Scale (BPRS; Overall, “The Brief Psychiatric Rating Scale. Psychological Reports”, 1962, 10:799-812) were assessed pre-dose, at 40 minutes, and 2 hours post-dose.

The test system is the same in data set [4]. Nature of the data set: CADSS (Example 7). The following applies: in vivo. Details: species or system human. Here is the method: as §1
Data set [5] relates to subjects with TRD. The following applies: human, in vivo, other: intranasal.
Procedure: (§2) The Clinician Administered Dissociative States Scale (CADSS) was measured prior to the start of each dose, at 40 minutes, and 1.5 hours postdose.
The subject of data set [6] is subjects with TRD. The following applies: human, in vivo, other: intranasal. This is another data set of the same source.
Procedure: as §2

Procedure for adult subjects with TRD: Blood pressure and pulse/heart rate measurements were assessed supine with a completely automated device. Manual techniques were used only if an automated device is not available. Blood pressure and pulse/heart rate measurements were preceded by at least 5 minutes of rest in a quiet setting without distractions (e.g., television, cell phones).
Descriptive statistics of temperature, pulse/heart rate, respiratory rate, pulse oximetry, and blood pressure (systolic and diastolic) (supine) values and changes from baseline were summarized at each scheduled time point. The percentage of subjects with values beyond clinically important limits were summarized.

Take `CN[C@]1(c2ccccc2Cl)CCCCC1=O` [esketamine, (S)-2-(2-chlorophenyl)-2-(methylamino)cyclohexanone]: the “BHS total score change from baseline, Diff. of LS Means (minus Placebo)” value in data set [1] (Day 1(DB): 4 H) is −1.5. The “BHS total score change from baseline, Diff. of LS Means (minus Placebo)” value in data set [1] (End Point(DB)) is listed as −2.3. In data set [2], the “AUC-based safety margin compared with the maximum 84 mg clinical dose” value is recorded as about 11 fold and the “Cmax-based safety margin compared with the maximum 84 mg clinical dose” value was “approximately 17 fold”. In addition, in data set [3] (10 or 40 minutes post-dose), the “maximum diastolic blood pressure value” is reported as 115 mmHg and the “maximum systolic blood pressure value” was 199 mmHg. Further, in data set [3] (dosing days), the “maximum mean change in diastolic blood pressure” value is 10.3 mmHg, the “maximum mean change in heart rate” value turned out to be 9.4 bpm and the “maximum mean change in systolic blood pressure” value worked out at 19.0 mmHg. Also, the “elevated blood pressure returned to the normal range by” value in data set [3] (in vivo) is at most 2 hours post-dose. For the same molecule, in data set [4], the “perceptual changes/dissociative symptoms (CADSS) peaked around” value lay in the range of 30 to 40 min and the “perceptual changes/dissociative symptoms (CADSS) resolved by” value is at most 2 h. In the data set with adult subjects with TRD (across all dosing days), the “maximum mean increase in diastolic BP” value was 8.1. In addition, in the data set with adult subjects with TRD (double-blind phase), the “time blood pressure returned to normal range” value was 90 min and the “time of peak of transient blood pressure increase post dose” value was “approximately 40 minutes”. For the same molecule, the “dissociative/perceptual change symptoms (CADSS) resolved by” value in the data set with subjects with TRD [5] is given as at most 1.5 hours post dose. Further, in the data set on subjects with TRD [6], the “dissociative and perceptual change symptoms (CADSS) resolved by” value was at most 1.5 hours post dose.
